Reference: US9340590B2 (priority 2011, dated 2016)
Positions of bridges follow the written chain, without caps; N, C: chain ends. Non-standard residues stand in square brackets, D forms with d. Residues, ends and D or L forms follow the SMILES beside them. 1Nal = N[C@@H](Cc1cccc2ccccc12)C(=O)O; Lys(Me2) = CN(C)CCCC[C@H](N)C(=O)O

The compounds below were run against hNav1.7 (Homo sapiens, UniProt Q15858) (assay: cell-based). Details: Nav1.7 Use IC50.
Sequence of hNav1.7 (Q15858 whole entry, looked up): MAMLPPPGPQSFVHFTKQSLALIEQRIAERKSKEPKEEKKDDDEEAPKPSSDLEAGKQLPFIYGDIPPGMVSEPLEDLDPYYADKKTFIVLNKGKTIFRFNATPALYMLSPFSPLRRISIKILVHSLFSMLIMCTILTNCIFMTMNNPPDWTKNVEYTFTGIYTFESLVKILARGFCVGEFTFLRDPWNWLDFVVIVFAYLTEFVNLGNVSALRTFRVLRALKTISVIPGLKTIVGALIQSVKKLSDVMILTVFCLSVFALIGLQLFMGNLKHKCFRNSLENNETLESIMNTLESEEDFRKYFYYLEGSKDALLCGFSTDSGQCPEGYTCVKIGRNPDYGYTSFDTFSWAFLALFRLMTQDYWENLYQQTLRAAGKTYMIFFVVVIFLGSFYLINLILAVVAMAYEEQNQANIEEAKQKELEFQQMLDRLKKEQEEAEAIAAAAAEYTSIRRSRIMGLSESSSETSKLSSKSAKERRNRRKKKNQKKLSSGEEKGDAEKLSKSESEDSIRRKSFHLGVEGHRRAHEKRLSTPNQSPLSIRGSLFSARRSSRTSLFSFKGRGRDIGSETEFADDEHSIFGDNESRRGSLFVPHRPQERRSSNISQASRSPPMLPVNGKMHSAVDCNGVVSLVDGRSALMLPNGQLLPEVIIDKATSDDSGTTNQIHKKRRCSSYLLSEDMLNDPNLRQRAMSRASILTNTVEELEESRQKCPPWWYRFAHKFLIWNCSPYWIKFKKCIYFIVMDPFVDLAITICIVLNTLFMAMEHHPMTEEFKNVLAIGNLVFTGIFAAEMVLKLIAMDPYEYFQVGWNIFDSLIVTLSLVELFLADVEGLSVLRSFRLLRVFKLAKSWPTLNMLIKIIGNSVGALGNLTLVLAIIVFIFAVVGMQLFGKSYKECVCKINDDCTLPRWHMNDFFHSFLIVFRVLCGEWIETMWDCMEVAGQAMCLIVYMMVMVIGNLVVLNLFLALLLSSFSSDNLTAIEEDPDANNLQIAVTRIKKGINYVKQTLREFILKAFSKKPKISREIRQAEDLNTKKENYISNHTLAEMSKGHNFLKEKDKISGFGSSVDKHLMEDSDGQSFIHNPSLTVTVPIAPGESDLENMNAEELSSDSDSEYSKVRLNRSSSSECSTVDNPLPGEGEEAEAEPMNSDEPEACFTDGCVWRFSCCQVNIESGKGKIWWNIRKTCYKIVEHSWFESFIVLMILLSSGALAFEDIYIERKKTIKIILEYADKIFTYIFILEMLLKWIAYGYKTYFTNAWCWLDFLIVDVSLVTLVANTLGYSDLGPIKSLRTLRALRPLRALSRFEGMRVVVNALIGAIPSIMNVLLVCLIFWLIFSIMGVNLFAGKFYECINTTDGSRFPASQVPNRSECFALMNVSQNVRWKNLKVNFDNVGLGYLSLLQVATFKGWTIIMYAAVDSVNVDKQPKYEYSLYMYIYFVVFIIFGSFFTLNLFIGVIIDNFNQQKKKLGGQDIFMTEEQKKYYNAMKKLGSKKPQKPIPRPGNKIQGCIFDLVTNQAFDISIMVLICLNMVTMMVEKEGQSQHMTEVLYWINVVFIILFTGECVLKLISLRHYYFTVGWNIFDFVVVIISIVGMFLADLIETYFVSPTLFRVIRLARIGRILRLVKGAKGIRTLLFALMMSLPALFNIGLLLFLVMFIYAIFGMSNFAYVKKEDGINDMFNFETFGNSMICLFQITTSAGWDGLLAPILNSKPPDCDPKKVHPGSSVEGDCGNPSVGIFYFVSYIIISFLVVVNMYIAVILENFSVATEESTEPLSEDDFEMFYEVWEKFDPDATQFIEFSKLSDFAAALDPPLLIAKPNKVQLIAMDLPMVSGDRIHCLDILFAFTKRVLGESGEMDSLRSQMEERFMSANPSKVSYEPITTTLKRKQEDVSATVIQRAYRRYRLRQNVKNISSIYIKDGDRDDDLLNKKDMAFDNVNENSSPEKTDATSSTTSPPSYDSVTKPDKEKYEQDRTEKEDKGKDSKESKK
In the case of CSCC[C@@H]1NC(=O)[C@H](Cc2ccccc2)NC(=O)CNC(=O)[C@H](CC(C)C)NC(=O)[C@@H](NC(=O)[C@@H](N)CC(=O)O)CSSC[C@@H]2NC(=O)[C@@H]3CSSC[C@@H](C(=O)N[C@@H](CCCCN)C(=O)N[C@@H](Cc4ccc(O)cc4)C(=O)N[C@H](C(=O)N[C@@H](Cc4ccccc4)C(N)=O)C(C)C)NC(=O)[C@H](Cc4c[nH]c5ccccc45)NC(=O)[C@H](CCCCN)NC(=O)[C@H](Cc4cnc[nH]4)NC(=O)[C@H]([C@@H](C)O)NC(=O)[C@H](CCCNC(=N)N)NC(=O)[C@H](CO)NC(=O)[C@H](CSSC[C@H](NC(=O)[C@H](CCCCN)NC(=O)[C@H](CCCNC(=N)N)NC1=O)C(=O)N[C@@H](CC(=O)O)C(=O)N1CCC[C@H]1C(=O)N[C@@H](CC(=O)O)C(=O)N[C@@H](CC(N)=O)C(=O)N[C@@H](CC(=O)O)C(=O)N[C@@H](CCCCN)C(=O)N3)NC(=O)[C@H](C(C)C)NC(=O)[C@H](CC(C)C)NC(=O)[C@H](CC(N)=O)NC(=O)[C@@H]1CCCN1C(=O)[C@H](CCCNC(=N)N)NC2=O [[Asp10]GpTx-1(1-34)] (H-DCLGFMRKCDPDNDKCCRPNLVCSRTHKWCKYVF-NH2; disulfide 2-17, 9-23, 16-30), the IC50 is reported as 3 nM.
CC[C@H](C)[C@@H]1NC(=O)[C@@H]2CSSC[C@@H]3NC(=O)[C@H](C(C)C)NC(=O)[C@H](CC(C)C)NC(=O)[C@H](CC(N)=O)NC(=O)[C@@H]4CCCN4C(=O)[C@H](CCCNC(=N)N)NC(=O)[C@H](CSSC[C@H](NC(=O)[C@@H](N)CC(=O)O)C(=O)N[C@@H](CC(C)C)C(=O)NCC(=O)N[C@@H](C(C)(C)C)C(=O)N[C@@H](CCSC)C(=O)N[C@@H](CCCNC(=N)N)C(=O)N[C@@H](CCCCN)C(=O)N2)NC(=O)[C@H](CSSC[C@@H](C(=O)N[C@@H](CCCCN)C(=O)N[C@@H](Cc2ccc(O)cc2)C(=O)N[C@H](C(=O)N[C@@H](Cc2ccccc2)C(N)=O)C(C)C)NC(=O)[C@H](Cc2c[nH]c4ccccc24)NC(=O)[C@H](CCCCN)NC(=O)[C@H](Cc2cnc[nH]2)NC(=O)[C@H]([C@@H](C)O)NC(=O)[C@H](CCCNC(=N)N)NC(=O)[C@H](CO)NC3=O)NC(=O)[C@H](CCCCN)NC(=O)[C@H](CC(=O)O)NC(=O)[C@H](CC(N)=O)NC(=O)[C@H](CC(=O)O)NC(=O)[C@@H]2CCCN2C1=O [[Tle5]GpTx-1(1-34)] gave an IC50 of 23 nM.

Same assay, conditions: read-out: Nav1.7 Use IC50
CC[C@H](C)[C@@H]1NC(=O)[C@@H]2CSSC[C@@H]3NC(=O)[C@H](C(C)C)NC(=O)[C@H](CC(C)C)NC(=O)[C@H](CC(N)=O)NC(=O)[C@@H]4CCCN4C(=O)[C@H](CCCNC(=N)N)NC(=O)[C@H](CSSC[C@H](NC(=O)[C@@H](N)CC(=O)O)C(=O)N[C@@H](CC(C)C)C(=O)NCC(=O)N[C@@H](CCSC)C(=O)N[C@@H](CCSC)C(=O)N[C@@H](CCCNC(=N)N)C(=O)N[C@@H](CCCCN)C(=O)N2)NC(=O)[C@H](CSSC[C@@H](C(=O)N[C@@H](CCCCN)C(=O)N[C@@H](Cc2ccc(O)cc2)C(=O)N[C@H](C(=O)N[C@@H](Cc2ccccc2)C(N)=O)C(C)C)NC(=O)[C@H](Cc2c[nH]c4ccccc24)NC(=O)[C@H](CCCCN)NC(=O)[C@H](Cc2c[nH]cn2)NC(=O)[C@H]([C@@H](C)O)NC(=O)[C@H](CCCNC(=N)N)NC(=O)[C@H](CO)NC3=O)NC(=O)[C@H](CCCCN)NC(=O)[C@H](CC(=O)O)NC(=O)[C@H](CC(N)=O)NC(=O)[C@H](CC(=O)O)NC(=O)[C@@H]2CCCN2C1=O [SEQ ID NO: 268] (H-DCLGMMRKCIPDNDKCCRPNLVCSRTHKWCKYVF-NH2; disulfide 2-17, 9-23, 16-30) showed an IC50 of 2 nM.
CC[C@H](C)[C@@H]1NC(=O)[C@@H]2CSSC[C@@H]3NC(=O)[C@H](C(C)C)NC(=O)[C@H](CC(C)C)NC(=O)[C@H](CC(N)=O)NC(=O)[C@@H]4CCCN4C(=O)[C@H](CCCNC(=N)N)NC(=O)[C@H](CSSC[C@H](NC(=O)[C@@H](N)CC(=O)O)C(=O)N[C@@H](CC(C)C)C(=O)NCC(=O)NCC(=O)N[C@@H](CCSC)C(=O)N[C@@H](CCCNC(=N)N)C(=O)N[C@@H](CCCCN)C(=O)N2)NC(=O)[C@H](CSSC[C@@H](C(=O)N[C@@H](CCCCN)C(=O)N[C@@H](Cc2ccc(O)cc2)C(=O)N[C@H](C(=O)N[C@@H](Cc2ccccc2)C(N)=O)C(C)C)NC(=O)[C@H](Cc2c[nH]c4ccccc24)NC(=O)[C@H](CCCCN)NC(=O)[C@H](Cc2c[nH]cn2)NC(=O)[C@H]([C@@H](C)O)NC(=O)[C@H](CCCNC(=N)N)NC(=O)[C@H](CO)NC3=O)NC(=O)[C@H](CCCCN)NC(=O)[C@H](CC(=O)O)NC(=O)[C@H](CC(N)=O)NC(=O)[C@H](CC(=O)O)NC(=O)[C@@H]2CCCN2C1=O [SEQ ID NO: 265] (H-DCLGGMRKCIPDNDKCCRPNLVCSRTHKWCKYVF-NH2; disulfide 2-17, 9-23, 16-30) was tested, and the IC50 was 9 nM.
CC[C@H](C)[C@@H]1NC(=O)[C@@H]2CSSC[C@@H]3NC(=O)[C@H](C(C)C)NC(=O)[C@H](CC(C)C)NC(=O)[C@H](CC(N)=O)NC(=O)[C@@H]4CCCN4C(=O)[C@H](CCCNC(=N)N)NC(=O)[C@H](CSSC[C@H](NC(=O)[C@@H](N)CC(=O)O)C(=O)N[C@@H](CC(C)C)C(=O)NCC(=O)N[C@@H](Cc4ccccc4)C(=O)N[C@@H](CCSC)C(=O)N[C@@H](CCCNC(=N)N)C(=O)N[C@@H](CCCCN)C(=O)N2)NC(=O)[C@H](CSSC[C@@H](C(=O)N[C@@H](CCCCN)C(=O)N[C@@H](Cc2ccc(O)cc2)C(=O)N[C@H](C(=O)N[C@@H](Cc2ccccc2)C(N)=O)C(C)C)NC(=O)[C@H](Cc2c[nH]c4ccccc24)NC(=O)[C@H](CCCCN)NC(=O)[C@H](Cc2c[nH]cn2)NC(=O)[C@H](CCCNC(=N)N)NC(=O)[C@H](CCCNC(=N)N)NC(=O)[C@H](CO)NC3=O)NC(=O)[C@H](CCCCN)NC(=O)[C@H](CC(=O)O)NC(=O)[C@H](CC(N)=O)NC(=O)[C@H](CC(=O)O)NC(=O)[C@@H]2CCCN2C1=O [[Arg26]GpTx-1(1-34)] (H-DCLGFMRKCIPDNDKCCRPNLVCSRRHKWCKYVF-NH2; disulfide 2-17, 9-23, 16-30) was tested, and the IC50 was 5 nM.
CC[C@H](C)[C@@H]1NC(=O)[C@@H]2CSSC[C@@H]3NC(=O)[C@H](C(C)C)NC(=O)[C@H](CC(C)C)NC(=O)[C@H](CC(N)=O)NC(=O)[C@@H]4CCCN4C(=O)[C@H](CCCNC(=N)N)NC(=O)[C@H](CSSC[C@H](NC(=O)[C@@H](N)CC(=O)O)C(=O)N[C@@H](CC(C)C)C(=O)NCC(=O)N[C@@H](C4CCCC4)C(=O)N[C@@H](CCSC)C(=O)N[C@@H](CCCNC(=N)N)C(=O)N[C@@H](CCCCN)C(=O)N2)NC(=O)[C@H](CSSC[C@@H](C(=O)N[C@@H](CCCCN)C(=O)N[C@@H](Cc2ccc(O)cc2)C(=O)N[C@H](C(=O)N[C@@H](Cc2ccccc2)C(N)=O)C(C)C)NC(=O)[C@H](Cc2c[nH]c4ccccc24)NC(=O)[C@H](CCCCN)NC(=O)[C@H](Cc2c[nH]cn2)NC(=O)[C@H]([C@@H](C)O)NC(=O)[C@H](CCCNC(=N)N)NC(=O)[C@H](CO)NC3=O)NC(=O)[C@H](CCCCN)NC(=O)[C@H](CC(=O)O)NC(=O)[C@H](CC(N)=O)NC(=O)[C@H](CC(=O)O)NC(=O)[C@@H]2CCCN2C1=O [[Cpg5]GpTx-1(1-34)] showed an IC50 of 5 nM.
For CC[C@H](C)[C@@H]1NC(=O)[C@@H]2CSSC[C@@H]3NC(=O)[C@H](C(C)C)NC(=O)[C@H](CC(C)C)NC(=O)[C@H](CC(N)=O)NC(=O)[C@@H]4CCCN4C(=O)[C@H](CCCCN(C)C)NC(=O)[C@H](CSSC[C@H](NC(=O)[C@@H](N)CC(=O)O)C(=O)N[C@@H](CC(C)C)C(=O)NCC(=O)N[C@@H](Cc4ccccc4)C(=O)N[C@@H](CCSC)C(=O)N[C@@H](CCCNC(=N)N)C(=O)N[C@@H](CCCCN)C(=O)N2)NC(=O)[C@H](CSSC[C@@H](C(=O)N[C@@H](CCCCN)C(=O)N[C@@H](Cc2ccc(O)cc2)C(=O)N[C@H](C(=O)N[C@@H](Cc2ccccc2)C(N)=O)C(C)C)NC(=O)[C@H](Cc2c[nH]c4ccccc24)NC(=O)[C@H](CCCCN)NC(=O)[C@H](Cc2c[nH]cn2)NC(=O)[C@H]([C@@H](C)O)NC(=O)[C@H](CCCNC(=N)N)NC(=O)[C@H](CO)NC3=O)NC(=O)[C@H](CCCCN)NC(=O)[C@H](CC(=O)O)NC(=O)[C@H](CC(N)=O)NC(=O)[C@H](CC(=O)O)NC(=O)[C@@H]2CCCN2C1=O [[K(Me2)18]GpTx-1(1-34)] (H-DCLGFMRKCIPDNDKCC[Lys(Me2)]PNLVCSRTHKWCKYVF-NH2; disulfide 2-17, 9-23, 16-30), the IC50 was 5 nM.
CC[C@H](C)[C@@H]1NC(=O)[C@@H]2CSSC[C@@H]3NC(=O)[C@H](C(C)C)NC(=O)[C@H](CC(C)C)NC(=O)[C@H](CC(N)=O)NC(=O)[C@@H]4CCCN4C(=O)[C@H](CCCNC(=N)N)NC(=O)[C@H](CSSC[C@H](NC(=O)[C@@H](N)CC(=O)O)C(=O)N[C@@H](CC(C)C)C(=O)NCC(=O)N[C@@H](Cc4ccccc4)C(=O)N[C@@H](CCSC)C(=O)N[C@@H](CCCNC(=N)N)C(=O)N[C@@H](CCCCN)C(=O)N2)NC(=O)[C@H](CSSC[C@@H](C(=O)N[C@@H](CCCCN)C(=O)N[C@@H](Cc2cccc4ccccc24)C(=O)N[C@H](C(=O)N[C@@H](Cc2ccccc2)C(N)=O)C(C)C)NC(=O)[C@H](Cc2c[nH]c4ccccc24)NC(=O)[C@H](CCCCN)NC(=O)[C@H](Cc2c[nH]cn2)NC(=O)[C@H]([C@@H](C)O)NC(=O)[C@H](CCCNC(=N)N)NC(=O)[C@H](CO)NC3=O)NC(=O)[C@H](CCCCN)NC(=O)[C@H](CC(=O)O)NC(=O)[C@H](CC(N)=O)NC(=O)[C@H](CC(=O)O)NC(=O)[C@@H]2CCCN2C1=O [[1-Nal32]GpTx-1(1-34)] (H-DCLGFMRKCIPDNDKCCRPNLVCSRTHKWCK[1Nal]VF-NH2; disulfide 2-17, 9-23, 16-30) was tested, and the IC50 was 4 nM.
CC[C@H](C)[C@@H]1NC(=O)[C@@H]2CSSC[C@@H]3NC(=O)[C@H](C(C)C)NC(=O)[C@H](CC(C)C)NC(=O)[C@H](CC(N)=O)NC(=O)[C@@H]4CCCN4C(=O)[C@H](CCCNC(=N)N)NC(=O)[C@H](CSSC[C@H](NC(=O)[C@@H](N)CC(=O)O)C(=O)N[C@@H](CC(C)C)C(=O)N[C@@H](CCCCN)C(=O)N[C@@H](Cc4ccccc4)C(=O)N[C@@H](CCSC)C(=O)N[C@@H](CCCNC(=N)N)C(=O)N[C@@H](CCCCN)C(=O)N2)NC(=O)[C@H](CSSC[C@@H](C(=O)N[C@@H](CCCCN)C(=O)N[C@@H](Cc2ccc(O)cc2)C(=O)N[C@H](C(=O)N[C@@H](Cc2ccccc2)C(N)=O)C(C)C)NC(=O)[C@H](Cc2c[nH]c4ccccc24)NC(=O)[C@H](CCCCN)NC(=O)[C@H](Cc2c[nH]cn2)NC(=O)[C@H]([C@@H](C)O)NC(=O)[C@H](CCCNC(=N)N)NC(=O)[C@H](CO)NC3=O)NC(=O)[C@H](CCCCN)NC(=O)[C@H](CC(=O)O)NC(=O)[C@H](CC(N)=O)NC(=O)[C@H](CC(=O)O)NC(=O)[C@@H]2CCCN2C1=O [SEQ ID NO: 39] (H-DCLKFMRKCIPDNDKCCRPNLVCSRTHKWCKYVF-NH2; disulfide 2-17, 9-23, 16-30) gave an IC50 of 6 nM.
